# How the values were obtained:
# [1] = Agonist activity at CCR2b receptor; type: functional
# [2] = molecular target: T1, 5-hydroxytryptamine receptor 1A (Homo sapiens, UniProt P08908); experiment: Inhibition of 5HT1A receptor
# T1 sequence (P08908 whole entry): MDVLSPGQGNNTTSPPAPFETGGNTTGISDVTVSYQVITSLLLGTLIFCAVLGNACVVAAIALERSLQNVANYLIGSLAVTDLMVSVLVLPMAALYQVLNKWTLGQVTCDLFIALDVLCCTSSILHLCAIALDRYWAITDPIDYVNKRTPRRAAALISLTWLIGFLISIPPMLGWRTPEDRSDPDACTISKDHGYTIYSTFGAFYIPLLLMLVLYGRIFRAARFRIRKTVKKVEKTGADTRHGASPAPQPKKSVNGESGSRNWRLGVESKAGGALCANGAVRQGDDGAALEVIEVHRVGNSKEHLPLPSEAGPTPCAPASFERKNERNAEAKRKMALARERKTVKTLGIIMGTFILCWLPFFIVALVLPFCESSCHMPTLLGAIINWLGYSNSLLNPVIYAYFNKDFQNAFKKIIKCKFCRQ
# Substance-P receptor [3] = molecular target: T2, Substance-P receptor (Homo sapiens, UniProt P25103); experiment: Agonist activity at NK1 receptor; type: functional
# [4] = molecular target: T3, Muscarinic acetylcholine receptor M1 (Homo sapiens, UniProt P11229); experiment: Agonist activity at muscarinic M1 receptor; type: functional
# T3 sequence (P11229 whole entry): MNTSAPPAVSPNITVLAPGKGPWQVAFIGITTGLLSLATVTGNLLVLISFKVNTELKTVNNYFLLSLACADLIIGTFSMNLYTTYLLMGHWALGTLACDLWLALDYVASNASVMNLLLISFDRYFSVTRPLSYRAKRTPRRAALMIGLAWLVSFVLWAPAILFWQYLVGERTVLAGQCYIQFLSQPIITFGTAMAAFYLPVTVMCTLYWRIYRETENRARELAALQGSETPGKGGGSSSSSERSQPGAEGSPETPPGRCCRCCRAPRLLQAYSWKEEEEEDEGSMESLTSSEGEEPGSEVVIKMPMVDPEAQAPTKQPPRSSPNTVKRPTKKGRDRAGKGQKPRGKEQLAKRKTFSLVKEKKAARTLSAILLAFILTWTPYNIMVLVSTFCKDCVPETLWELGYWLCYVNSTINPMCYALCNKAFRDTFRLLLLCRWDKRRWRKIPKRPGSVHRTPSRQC
# [5] = Volume of distribution at steady state in Sprague-Dawley rat at 0.5 mg/kg, iv; type: ADME, organism-based; set-up: dose 0.5 mg/kg, route intravenous; settings: in vivo, read-out: Vdss
# [6] = Cmax in Sprague-Dawley rat at 10 mg/kg, po; type: ADME, organism-based; set-up: dose 10 mg/kg, route oral; settings: in vivo
# Cannabinoid receptor 2 [7] = molecular target: T4, Cannabinoid receptor 2 (Homo sapiens, UniProt P34972); experiment: Agonist activity at human CB2 receptor expressed in insect Sf9 cells assessed as effect on Eu-GTP binding
# Cannabinoid receptor 1 [8] = molecular target: T5, Cannabinoid receptor 1 (Homo sapiens, UniProt P21554); experiment: Agonist activity at human CB1 receptor expressed in insect Sf9 cells assessed as effect on Eu-GTP binding
# [9] = Metabolic stability in rat liver microsome assessed as intrinsic clearance; type: ADME; settings: liver microsomes
# Cannabinoid receptor 2 [10] = molecular target: T4, Cannabinoid receptor 2; experiment: Agonist activity at human CB2 receptor assessed as inhibition of forskolin-induced increase in intracellular cAMP; type: functional, cell-based
# D(2) dopamine receptor [11] = molecular target: T6, D(2) dopamine receptor (Homo sapiens, UniProt P14416); experiment: Agonist activity at dopamine D2 receptor; type: functional
# Substance-P receptor [12] = molecular target: T2, Substance-P receptor; experiment: Inhibition of NK1 receptor
# [13] = molecular target: T3, Muscarinic acetylcholine receptor M1; experiment: Inhibition of muscarinic M1 receptor
# [14] = molecular target: T1, 5-hydroxytryptamine receptor 1A; experiment: Agonist activity at 5HT1A receptor; type: functional
# [15] = molecular target: T7, Beta-1 adrenergic receptor (Homo sapiens, UniProt P08588); experiment: Agonist activity at adrenergic beta-1 receptor; type: functional
# [16] = AUC (0 to 24 hrs) in Sprague-Dawley rat at 10 mg/kg, po; type: ADME, organism-based; set-up: time < 24 hr, dose 10 mg/kg, route oral; settings: plasma
# [17] = molecular target: T8, 5-hydroxytryptamine receptor 2B (Homo sapiens, UniProt P41595); experiment: Agonist activity at 5HT2B receptor; type: functional
# [18] = molecular target: T9, Somatostatin receptor type 4 (Homo sapiens, UniProt P31391); experiment: Agonist activity at sst4 receptor; type: functional
# [19] = Clearance in Sprague-Dawley rat at 0.5 mg/kg, iv; type: ADME, organism-based; set-up: dose 0.5 mg/kg, route intravenous; settings: in vivo
# human MDR1 (P-gp) = experiment: Apparent permeability across pig LLC-PK1 cells transfected with human MDR1 at 5 uM in presence of 0.1% BSA; type: ADME, cell-based, Sus scrofa
# [20] = Metabolic stability in human liver microsome assessed as intrinsic clearance; type: ADME; settings: liver microsomes
# Histamine H1 receptor [21] = molecular target: T10, Histamine H1 receptor (Homo sapiens, UniProt P35367); experiment: Inhibition of histamine H1 receptor
# [22] = Bioavailability in Sprague-Dawley rat at 10 mg/kg, po; type: ADME, organism-based; settings: in vivo
# [23] = Solubility in simulated intestinal fluid; type: physicochemical
# [24] = molecular target: Voltage-gated inwardly rectifying potassium channel KCNH2 (Homo sapiens, UniProt Q12809); experiment: Displacement of radiolabeled dofetilide from human ERG
# [25] = Solubility in 0.01 N HCl; type: physicochemical
# LLC-PK1 [26] = experiment: Ratio of permeability from basolateral to apical side to apical to basolateral side in pig wild-type LLC-PK1 cells at 5 uM in presence of 0.1% BSA; type: ADME, cell-based, Sus scrofa; settings: llc-pk1, 5 µM
# [27] = molecular target: T7, Beta-1 adrenergic receptor; experiment: Inhibition of adrenergic beta-1 receptor
# [28] = Inhibition of CXR2 receptor
# [29] = Half life in Sprague-Dawley rat at 0.5 mg/kg, iv; type: ADME, organism-based; set-up: dose 0.5 mg/kg, route intravenous; settings: in vivo
# [30] = molecular target: T8, 5-hydroxytryptamine receptor 2B; experiment: Inhibition of 5HT2B receptor
# [31] = Solubility in phosphate buffer saline; type: physicochemical; settings: phosphate buffered saline
# D(2) dopamine receptor [32] = molecular target: T6, D(2) dopamine receptor; experiment: Inhibition of dopamine D2 receptor
# Cannabinoid receptor 2 [33] = molecular target: T4, Cannabinoid receptor 2; experiment: Agonist activity at human CB2 receptor expressed in insect Sf9 cells assessed as effect on Eu-GTP binding relative to CP-55940
# [34] = molecular target: T9, Somatostatin receptor type 4; experiment: Inhibition of sst4 receptor
# [35] = Agonist activity at adrenergic alpha1 receptor; type: functional
# Cannabinoid receptor 2 [36] = molecular target: T4, Cannabinoid receptor 2; experiment: Agonist activity at human CB2 receptor assessed as inhibition of forskolin-induced increase in intracellular cAMP relative to CP-55940; type: functional, cell-based
# Cannabinoid receptor 1 [37] = molecular target: T5, Cannabinoid receptor 1; experiment: Agonist activity at human CB1 receptor expressed in insect Sf9 cells assessed as effect on Eu-GTP binding relative to CP-55940
# [38] = Apparent permeability across pig wild-type LLC-PK1 cells at 5 uM in presence of 0.1% BSA; type: ADME, cell-based, Sus scrofa
# Cannabinoid receptor 1 [39] = molecular target: T5, Cannabinoid receptor 1; experiment: Agonist activity at human CB1 receptor assessed as inhibition of forskolin-induced increase in intracellular cAMP; type: functional, cell-based
# LLC-PK1 [40] = experiment: Ratio of permeability from basolateral to apical side to apical to basolateral side in pig LLC-PK1 cells expressing human MDR1 at 5 uM in presence of 0.1% BSA; type: ADME, cell-based, Sus scrofa; settings: llc-pk1, 5 µM
# Histamine H1 receptor [41] = molecular target: T10, Histamine H1 receptor; experiment: Agonist activity at histamine H1 receptor; type: functional
# Mu-type opioid receptor [42] = molecular target: T11, Mu-type opioid receptor (Homo sapiens, UniProt P35372); experiment: Inhibition of mu opioid receptor
# Cannabinoid receptor 1 [43] = molecular target: T5, Cannabinoid receptor 1; experiment: Agonist activity at human CB1 receptor assessed as inhibition of forskolin-induced increase in intracellular cAMP relative to CP-55940; type: functional, cell-based
# Mu-type opioid receptor [44] = molecular target: T11, Mu-type opioid receptor; experiment: Agonist activity at mu opioid receptor; type: functional
# [45] = Inhibition of adrenergic alpha1 receptor
# [46] = Inhibition of CCR2b receptor
# [47] = Agonist activity at CXR2 receptor; type: functional
# T5 sequence (P21554 whole entry): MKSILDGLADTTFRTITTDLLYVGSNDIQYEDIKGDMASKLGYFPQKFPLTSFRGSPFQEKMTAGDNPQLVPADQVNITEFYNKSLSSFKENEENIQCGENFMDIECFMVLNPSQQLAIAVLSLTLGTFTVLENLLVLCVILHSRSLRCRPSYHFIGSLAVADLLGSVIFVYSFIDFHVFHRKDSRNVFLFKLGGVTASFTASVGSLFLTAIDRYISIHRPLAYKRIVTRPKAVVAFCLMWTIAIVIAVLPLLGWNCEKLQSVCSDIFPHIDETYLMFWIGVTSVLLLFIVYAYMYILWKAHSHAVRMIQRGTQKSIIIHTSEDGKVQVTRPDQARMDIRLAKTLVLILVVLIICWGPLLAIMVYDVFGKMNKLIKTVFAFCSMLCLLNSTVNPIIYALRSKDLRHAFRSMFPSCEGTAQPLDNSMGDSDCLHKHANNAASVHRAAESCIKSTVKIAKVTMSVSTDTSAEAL
# T4 sequence (P34972 whole entry): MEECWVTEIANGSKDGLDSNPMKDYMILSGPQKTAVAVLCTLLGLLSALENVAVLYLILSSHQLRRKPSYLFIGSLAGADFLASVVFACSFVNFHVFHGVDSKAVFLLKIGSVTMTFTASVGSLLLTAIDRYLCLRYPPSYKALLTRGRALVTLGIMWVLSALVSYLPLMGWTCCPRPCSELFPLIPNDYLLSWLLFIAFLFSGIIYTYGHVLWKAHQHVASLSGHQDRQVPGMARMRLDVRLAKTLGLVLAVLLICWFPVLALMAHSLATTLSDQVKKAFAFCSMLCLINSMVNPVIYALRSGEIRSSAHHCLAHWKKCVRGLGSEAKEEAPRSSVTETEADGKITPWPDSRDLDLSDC
# T10 sequence (P35367 whole entry): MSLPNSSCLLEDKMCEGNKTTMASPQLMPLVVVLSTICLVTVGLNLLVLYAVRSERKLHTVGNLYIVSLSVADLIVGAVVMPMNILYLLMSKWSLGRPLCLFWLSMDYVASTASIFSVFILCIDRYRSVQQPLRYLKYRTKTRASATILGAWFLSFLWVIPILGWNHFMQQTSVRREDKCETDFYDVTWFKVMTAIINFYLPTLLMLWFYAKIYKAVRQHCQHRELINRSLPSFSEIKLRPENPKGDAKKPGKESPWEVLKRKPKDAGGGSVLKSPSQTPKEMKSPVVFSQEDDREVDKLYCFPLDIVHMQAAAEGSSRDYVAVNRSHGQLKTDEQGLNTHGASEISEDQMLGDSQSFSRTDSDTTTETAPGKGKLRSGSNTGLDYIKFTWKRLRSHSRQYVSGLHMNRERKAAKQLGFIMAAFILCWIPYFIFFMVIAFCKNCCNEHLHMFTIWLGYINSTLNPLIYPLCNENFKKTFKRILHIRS
# T11 sequence (P35372 whole entry): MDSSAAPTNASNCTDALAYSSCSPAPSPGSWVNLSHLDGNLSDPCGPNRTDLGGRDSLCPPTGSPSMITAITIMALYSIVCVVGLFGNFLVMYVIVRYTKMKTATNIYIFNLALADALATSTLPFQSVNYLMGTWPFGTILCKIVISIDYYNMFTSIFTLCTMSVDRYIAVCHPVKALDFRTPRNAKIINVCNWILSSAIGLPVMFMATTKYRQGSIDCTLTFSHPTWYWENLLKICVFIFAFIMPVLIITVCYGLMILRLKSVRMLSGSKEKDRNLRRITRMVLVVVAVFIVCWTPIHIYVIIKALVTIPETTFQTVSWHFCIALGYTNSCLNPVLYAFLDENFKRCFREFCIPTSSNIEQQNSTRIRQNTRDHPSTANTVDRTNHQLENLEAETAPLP
# T6 sequence (P14416 whole entry): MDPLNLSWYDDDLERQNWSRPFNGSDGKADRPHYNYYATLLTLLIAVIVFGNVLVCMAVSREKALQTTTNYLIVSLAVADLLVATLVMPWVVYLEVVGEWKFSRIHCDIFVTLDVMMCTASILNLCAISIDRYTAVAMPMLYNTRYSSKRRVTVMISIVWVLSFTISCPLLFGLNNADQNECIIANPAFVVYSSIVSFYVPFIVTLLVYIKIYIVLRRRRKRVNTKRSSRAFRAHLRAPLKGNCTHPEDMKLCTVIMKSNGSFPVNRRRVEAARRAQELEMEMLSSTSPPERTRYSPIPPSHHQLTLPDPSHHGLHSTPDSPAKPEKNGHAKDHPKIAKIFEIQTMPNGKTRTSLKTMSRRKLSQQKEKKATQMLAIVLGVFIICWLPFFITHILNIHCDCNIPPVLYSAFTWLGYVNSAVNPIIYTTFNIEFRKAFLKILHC
# T2 sequence (P25103 whole entry): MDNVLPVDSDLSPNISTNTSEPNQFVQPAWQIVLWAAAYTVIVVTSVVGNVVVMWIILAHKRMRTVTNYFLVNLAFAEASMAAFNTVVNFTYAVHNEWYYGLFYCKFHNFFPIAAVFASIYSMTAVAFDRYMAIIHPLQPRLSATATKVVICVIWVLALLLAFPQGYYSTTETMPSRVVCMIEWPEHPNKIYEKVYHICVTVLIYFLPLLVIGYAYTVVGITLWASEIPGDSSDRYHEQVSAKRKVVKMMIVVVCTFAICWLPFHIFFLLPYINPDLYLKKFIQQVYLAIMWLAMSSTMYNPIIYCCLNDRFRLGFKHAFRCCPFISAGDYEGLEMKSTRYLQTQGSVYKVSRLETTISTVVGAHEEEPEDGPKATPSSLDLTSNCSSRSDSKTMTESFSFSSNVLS
# T8 sequence (P41595 whole entry): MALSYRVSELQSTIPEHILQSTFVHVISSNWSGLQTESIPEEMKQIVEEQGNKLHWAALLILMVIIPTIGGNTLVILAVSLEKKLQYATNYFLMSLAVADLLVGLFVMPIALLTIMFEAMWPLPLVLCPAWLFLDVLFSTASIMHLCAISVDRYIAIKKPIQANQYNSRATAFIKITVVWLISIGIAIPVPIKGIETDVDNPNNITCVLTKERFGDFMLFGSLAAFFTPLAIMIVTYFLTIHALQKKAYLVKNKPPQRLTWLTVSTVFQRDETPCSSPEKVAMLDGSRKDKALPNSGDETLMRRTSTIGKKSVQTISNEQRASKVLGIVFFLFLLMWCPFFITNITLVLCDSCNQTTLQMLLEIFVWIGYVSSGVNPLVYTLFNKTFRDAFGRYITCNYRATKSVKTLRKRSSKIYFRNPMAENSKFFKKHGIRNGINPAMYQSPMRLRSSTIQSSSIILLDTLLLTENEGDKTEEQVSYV
# T9 sequence (P31391 whole entry): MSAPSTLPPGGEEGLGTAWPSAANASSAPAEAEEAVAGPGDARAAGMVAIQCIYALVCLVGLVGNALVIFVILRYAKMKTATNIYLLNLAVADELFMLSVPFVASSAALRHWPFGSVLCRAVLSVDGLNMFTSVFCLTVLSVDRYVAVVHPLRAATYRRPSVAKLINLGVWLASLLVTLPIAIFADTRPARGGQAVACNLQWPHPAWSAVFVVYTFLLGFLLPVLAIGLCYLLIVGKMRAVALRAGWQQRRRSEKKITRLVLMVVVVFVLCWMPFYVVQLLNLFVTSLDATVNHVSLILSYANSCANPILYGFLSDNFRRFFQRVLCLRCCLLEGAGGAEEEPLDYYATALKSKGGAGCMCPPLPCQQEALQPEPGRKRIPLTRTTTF
# T7 sequence (P08588 whole entry): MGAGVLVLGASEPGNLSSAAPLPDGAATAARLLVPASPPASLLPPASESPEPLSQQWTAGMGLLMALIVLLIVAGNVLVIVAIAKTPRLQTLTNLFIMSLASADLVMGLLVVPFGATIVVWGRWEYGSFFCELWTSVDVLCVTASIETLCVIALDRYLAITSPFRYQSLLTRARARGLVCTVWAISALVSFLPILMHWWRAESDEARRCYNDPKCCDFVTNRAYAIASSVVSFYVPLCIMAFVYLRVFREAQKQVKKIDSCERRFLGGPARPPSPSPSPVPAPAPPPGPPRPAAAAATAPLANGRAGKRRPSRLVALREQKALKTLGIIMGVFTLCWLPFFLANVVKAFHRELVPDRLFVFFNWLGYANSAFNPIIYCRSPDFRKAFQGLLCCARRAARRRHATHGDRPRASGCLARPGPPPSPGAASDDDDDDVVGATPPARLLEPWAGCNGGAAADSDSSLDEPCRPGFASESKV
smiles,measurement,setting,value
Fc1ccc(-c2noc(C3CCN(c4cnc5ccc(Cl)cc5c4)CC3)n2)c(Cl)c1,EC50,[1],> 50 µM
same,IC50,[2],> 50 µM
same,EC50,Substance-P receptor [3],> 50 µM
same,EC50,[4],> 50 µM
same,Vd,[5],0.365 L/kg
same,Cmax,[6],682 ng/mL
same,EC50,Cannabinoid receptor 2 [7],0.007 µM
same,EC50,Cannabinoid receptor 1 [8],1.43 µM
same,microsomal CLint,[9],32 µL/min/mg
same,EC50,Cannabinoid receptor 2 [10],0.011 µM
same,EC50,D(2) dopamine receptor [11],> 50 µM
same,IC50,Substance-P receptor [12],> 50 µM
same,IC50,[13],> 50 µM
same,EC50,[14],> 50 µM
same,EC50,[15],> 50 µM
same,AUC(0-t) at 24 h,[16],5240 ng·h/mL
same,EC50,[17],> 50 µM
same,EC50,[18],> 50 µM
same,clearance,[19],0.65 mL/min/kg
same,Papp at 5 µM,human MDR1 (P-gp),10.7 ×10⁻⁶ cm/s
same,microsomal CLint,[20],38 µL/min/mg
same,IC50,Histamine H1 receptor [21],> 50 µM
same,bioavailability,[22],2%
same,solubility,[23],2 µg/mL
same,IC50,[24],0.5 µM
same,solubility,[25],< 1 µg/mL
same,Ratio,LLC-PK1 [26],0.9
same,IC50,[27],> 50 µM
same,IC50,[28],> 50 µM
same,half-life,[29],8.9 h
same,IC50,[30],> 50 µM
same,solubility,[31],< 1 µg/mL
same,IC50,D(2) dopamine receptor [32],> 50 µM
same,Emax,Cannabinoid receptor 2 [33],120%
same,IC50,[34],> 50 µM
same,EC50,[35],> 50 µM
same,Emax,Cannabinoid receptor 2 [36],102%
same,Emax,Cannabinoid receptor 1 [37],55%
same,Papp at 5 µM,[38],9.95 ×10⁻⁶ cm/s
same,EC50,Cannabinoid receptor 1 [39],> 2 µM
same,Ratio,LLC-PK1 [40],0.9
same,EC50,Histamine H1 receptor [41],> 50 µM
same,IC50,Mu-type opioid receptor [42],> 50 µM
same,Emax,Cannabinoid receptor 1 [43],19%
same,EC50,Mu-type opioid receptor [44],> 50 µM
same,IC50,[45],> 50 µM
same,IC50,[46],> 50 µM
same,EC50,[47],> 50 µM

# Reference: ChEMBL document CHEMBL1155906, “Structural modifications of N-arylamide oxadiazoles: Identification of N-arylpiperidine oxadiazoles as potent and selective agonists of CB2” (Bioorg Med Chem Lett, 2008)
